Several values for one entry are separate records, joined by “and”; a condition that tells them apart may be missing. Equal values may be shown once. Toxic doses and inconclusive results are not listed. No stated cut-off is given here; in the data, active means T/C of 150% or more; inactive means T/C below 125%.
System: L1210 leukemia ip in BDF1 mice, survival T/C
Assay: NCI In Vivo Anticancer Drug Screen. Data for tumor model L1210 Leukemia (intraperitoneal) in B6D2F1 (BDF1) mice
Details: endpoint: mean survival time, higher = longer survival
In short: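 Survival endpoint. Drug-treated group vs vehicle group, expressed as T divided by C. Tumor passaged by transplantation.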

[1] = dose: 100.0 mg/kg/injection, schedule: Q04DX002 (ip), vehicle: saline
[2] = dose: 200.0 mg/kg/injection, schedule: Q04DX002 (ip), vehicle: saline
[3] = dose: 400.0 mg/kg/injection, schedule: Q04DX002 (ip), vehicle: saline
[4] = dose: 100.0 mg/kg/injection, schedule: Q04DX003 (ip), vehicle: saline with Tween-80
[5] = dose: 200.0 mg/kg/injection, schedule: Q04DX003 (ip), vehicle: saline with Tween-80
[6] = dose: 100.0 mg/kg/injection, schedule: Q04DX002 (ip), vehicle: Klucel (hydroxypropylcellulose) (HPC)
[7] = dose: 200.0 mg/kg/injection, schedule: Q04DX002 (ip), vehicle: Klucel (hydroxypropylcellulose) (HPC)
[8] = dose: 400.0 mg/kg/injection, schedule: Q04DX002 (ip), vehicle: Klucel (hydroxypropylcellulose) (HPC)
[9] = dose: 100.0 mg/kg/injection, schedule: Q04DX003 (ip), vehicle: saline
[10] = dose: 200.0 mg/kg/injection, schedule: Q04DX003 (ip), vehicle: saline
[11] = dose: 100.0 mg/kg/injection, schedule: Q01DX001 (ip), vehicle: Klucel (hydroxypropylcellulose) (HPC)
[12] = dose: 150.0 mg/kg/injection, schedule: Q01DX001 (ip), vehicle: Klucel (hydroxypropylcellulose) (HPC)
[13] = dose: 100.0 mg/kg/injection, schedule: Q01DX001 (ip), vehicle: saline
[14] = dose: 200.0 mg/kg/injection, schedule: Q01DX001 (ip), vehicle: saline
[15] = dose: 400.0 mg/kg/injection, schedule: Q01DX001 (ip), vehicle: saline
[16] = dose: 50.0 mg/kg/injection, schedule: Q01DX009 (ip), vehicle: saline
[17] = dose: 100.0 mg/kg/injection, schedule: Q01DX009 (ip), vehicle: saline
[18] = dose: 100.0 mg/kg/injection, schedule: Q04DX002 (ip), vehicle: saline with Tween-80
[19] = dose: 200.0 mg/kg/injection, schedule: Q01DX009 (ip), vehicle: saline
[20] = dose: 200.0 mg/kg/injection, schedule: Q04DX002 (ip), vehicle: saline with Tween-80
[21] = dose: 400.0 mg/kg/injection, schedule: Q04DX002 (ip), vehicle: saline with Tween-80
[22] = dose: 100.0 mg/kg/injection, schedule: Q01DX001 (ip), vehicle: carboxymethylcellulose (CMC)
[23] = dose: 200.0 mg/kg/injection, schedule: Q01DX001 (ip), vehicle: carboxymethylcellulose (CMC)
[24] = dose: 400.0 mg/kg/injection, schedule: Q01DX001 (ip), vehicle: carboxymethylcellulose (CMC)

Measured: T/C

CCOC(=O)C(CBr)CBr
inactive: [1] 91 % of control | [2] 88 % of control | [3] 122 % of control

O=C(c1ccc(-c2ccccc2)cc1)C(Br)CCBr (configuration not stated)
inactive: [4] 106 % of control | [5] 93 % of control

CCCCCCCCCCCCCCCCOc1ccc(F)cc1
inactive: [6] 103 % of control | [7] 118 % of control | [8] 107 % of control

O=C(NCCCl)N1C(=O)NC(=O)C1(c1ccccc1)c1ccccc1
inactive: dose: 100.0 mg/kg/injection, schedule: Q01DX009 (ip), vehicle: saline with Tween-80 96 % of control | [9] 88 % of control | dose: 200.0 mg/kg/injection, schedule: Q01DX009 (ip), vehicle: saline with Tween-80 98 % of control | [10] 91 % of control | dose: 400.0 mg/kg/injection, schedule: Q01DX009 (ip), vehicle: saline with Tween-80 96 % of control | dose: 400.0 mg/kg/injection, schedule: Q04DX003 (ip), vehicle: saline 98 % of control

CC(=O)Nc1nc2ncc(C=Nc3cncnc3)nc2c(=O)[nH]1
inactive: dose: 100.0 mg/kg/injection, schedule: Q01DX001 (ip), vehicle: alkali diluted with saline 108 % of control | dose: 200.0 mg/kg/injection, schedule: Q01DX001 (ip), vehicle: alkali diluted with saline 94 % of control | dose: 400.0 mg/kg/injection, schedule: Q01DX001 (ip), vehicle: alkali diluted with saline 92 % of control

COc1ccc(Br)cc1CCCO
inactive: [4] 94 % of control | [5] 92 % of control | dose: 400.0 mg/kg/injection, schedule: Q04DX003 (ip), vehicle: saline with Tween-80 95 % of control

N#CCc1nn(-c2ccccc2)c(N)c1C#N
inactive: dose: 25.0 mg/kg/injection, schedule: Q01DX001 (ip), vehicle: Klucel (hydroxypropylcellulose) (HPC) 93 % of control | dose: 50.0 mg/kg/injection, schedule: Q01DX001 (ip), vehicle: Klucel (hydroxypropylcellulose) (HPC) 100 % of control | [11] 107 % of control and 91 % of control | [12] 97 % of control

COC(=O)C12CCc3cc(OC)ccc3C1=CC(=O)C2 (configuration not stated)
inactive: dose: 100.0 mg/kg/injection, schedule: Q04DX003 (ip), vehicle: saline sonified 101 % of control | dose: 200.0 mg/kg/injection, schedule: Q04DX003 (ip), vehicle: saline sonified 95 % of control | dose: 400.0 mg/kg/injection, schedule: Q04DX003 (ip), vehicle: saline sonified 94 % of control

C1=Cc2ccccc2/C1=C/c1ccccc1
inactive: dose: 100.0 mg/kg/injection, schedule: Q01DX001 (ip), vehicle: other 97 % of control | dose: 200.0 mg/kg/injection, schedule: Q01DX001 (ip), vehicle: other 95 % of control | dose: 400.0 mg/kg/injection, schedule: Q01DX001 (ip), vehicle: other 92 % of control

C[N+]1(CCNC2=CC(=O)C(NCC[N+]3(C)CCOCC3)=CC2=O)CCOCC1
inactive: dose: 5.0 mg/kg/injection, schedule: Q01DX001 (ip), vehicle: saline 103 % of control | dose: 10.0 mg/kg/injection, schedule: Q01DX001 (ip), vehicle: saline 101 % of control | dose: 20.0 mg/kg/injection, schedule: Q01DX001 (ip), vehicle: saline 101 % of control | dose: 40.0 mg/kg/injection, schedule: Q01DX001 (ip), vehicle: saline 101 % of control | dose: 80.0 mg/kg/injection, schedule: Q01DX001 (ip), vehicle: saline 97 % of control

CCc1ccccc1NC(=S)Nc1ccccc1
inactive: [6] 105 % of control | [7] 105 % of control | [8] 105 % of control

COc1ccc2c(c1OC)C13CCN(C)C(C2)C12C=CC(=O)C3c1c(OC)ccc(OC)c12 (configuration not stated)
inactive: [13] 95 % of control | [14] 95 % of control | [15] 91 % of control

O=C(O)CCC(=O)c1ccccc1
inactive: [16] 97 % of control | dose: 100.0 mg/kg/injection, schedule: Q01DX009 (ip), vehicle: Klucel (hydroxypropylcellulose) (HPC) 100 % of control | [17] 97 % of control | [6] 97 % of control | [18] 108 % of control | dose: 200.0 mg/kg/injection, schedule: Q01DX009 (ip), vehicle: Klucel (hydroxypropylcellulose) (HPC) 96 % of control | [19] 105 % of control | [7] 91 % of control | [20] 105 % of control | dose: 400.0 mg/kg/injection, schedule: Q01DX009 (ip), vehicle: Klucel (hydroxypropylcellulose) (HPC) 107 % of control | [8] 87 % of control | [21] 105 % of control

Nc1nc2c(nnn2C2CC(O)C(COP(=O)(O)O)O2)c(=O)[nH]1 (configuration not stated)
inactive: [11] 96 % of control | dose: 200.0 mg/kg/injection, schedule: Q01DX001 (ip), vehicle: Klucel (hydroxypropylcellulose) (HPC) 91 % of control | dose: 400.0 mg/kg/injection, schedule: Q01DX001 (ip), vehicle: Klucel (hydroxypropylcellulose) (HPC) 94 % of control

O=C(Nc1c[nH]c(=O)[nH]c1=O)C(F)(F)F
inactive: [16] 100 % of control | dose: 50.0 mg/kg/injection, schedule: Q04DX003 (ip), vehicle: saline 103 % of control | [17] 96 % of control | [9] 104 % of control | [19] 92 % of control | [10] 108 % of control

O=c1[nH]cccc1CCc1ccccc1
inactive: [13] 103 % of control | [14] 105 % of control | [15] 111 % of control

CCCCC(C#N)C1CC=CC(C(=O)O)C1 (configuration not stated)
inactive: [22] 101 % of control | [23] 92 % of control | [24] 97 % of control

C=CC(=O)N(CCN1CCOCC1)C(C)C
inactive: [1] 94 % of control | [2] 97 % of control | [3] 94 % of control

Cn1c(C2=CC(=O)c3ccccc3C2=O)c(C2=CC(=O)c3ccccc3C2=O)c2ccccc21
inactive: dose: 50.0 mg/kg/injection, schedule: Q01DX001 (ip), vehicle: saline 102 % of control | [13] 98 % of control | [14] 104 % of control | [15] 102 % of control

CC(=O)CC=NCCN=CCC(C)=O
inactive: dose: 100.0 mg/kg/injection, schedule: Q01DX001 (ip), vehicle: saline with Tween-80 98 % of control | dose: 200.0 mg/kg/injection, schedule: Q01DX001 (ip), vehicle: saline with Tween-80 103 % of control | dose: 400.0 mg/kg/injection, schedule: Q01DX001 (ip), vehicle: saline with Tween-80 95 % of control

CC1Oc2ccccc2NC1=O (configuration not stated)
inactive: [18] 102 % of control | [20] 106 % of control | [21] 98 % of control

CC(CC(=O)c1ccc(F)cc1)N1CCN(c2ccccc2)CC1 (configuration not stated)
inactive: [22] 103 % of control | [23] 90 % of control | [24] 90 % of control

CCCCOC(=O)c1ccccc1C(=O)OC1CCCCC1
inactive: dose: 75.0 mg/kg/injection, schedule: Q01DX001 (ip), vehicle: Klucel (hydroxypropylcellulose) (HPC) 115 % of control | [12] 103 % of control | dose: 300.0 mg/kg/injection, schedule: Q01DX001 (ip), vehicle: Klucel (hydroxypropylcellulose) (HPC) 100 % of control

From PubChem BioAssay AID248 (DTP/NCI, 2004)
